Where “and” joins values, the source holds several entries; their conditions need not be identical. Identical values can stand only once. Results filed as inconclusive are left out.
Tested on: nude mice, HT29 intrarenal xenograft, tumor weight T/C
Assay: NCI In Vivo Anticancer Drug Screen. Data for tumor model HT29;CX-1 Human Adenocarcinoma (MER+) (intrarenal inoculation) in NU/NU Swiss (nude) mice
Details: endpoint: mean tumor weight change, higher = larger tumour
How it was run: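 Mice with transplanted tumors are dosed with compound while controls get vehicle only. Survival or tumor burden is then assessed per group, and the treated value is expressed relative to control.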

[1] = dose: 50.0 mg/kg/injection, schedule: Q04DX004 (sc), vehicle: saline with Tween-80
[2] = dose: 100.0 mg/kg/injection, schedule: Q04DX004 (sc), vehicle: saline with Tween-80
[3] = dose: 200.0 mg/kg/injection, schedule: Q04DX004 (sc), vehicle: saline with Tween-80
[4] = dose: 2.0 mg/kg/injection, schedule: Q01DX010 (sc), vehicle: saline
[5] = dose: 4.0 mg/kg/injection, schedule: Q01DX010 (sc), vehicle: saline
[6] = dose: 150.0 mg/kg/injection, schedule: Q04DX004 (sc), vehicle: saline with Tween-80
[7] = dose: 400.0 mg/kg/injection, schedule: Q04DX004 (sc), vehicle: saline with Tween-80
[8] = dose: 800.0 mg/kg/injection, schedule: Q04DX004 (sc), vehicle: saline with Tween-80

Question: For `Nc1nc(/C=C(/O)c2ccccc2)c2ncn(C3OC(CO)C(O)C3O)c2n1` (configuration not stated), which T/C (dose: 50.0 mg/kg/injection, schedule: Q04DX004 (sc), vehicle: distilled water + Tween-80) is on record?
Answer: 52 % of control

Question: And the T/C (dose: 100.0 mg/kg/injection, schedule: Q04DX004 (sc), vehicle: distilled water + Tween-80)?
Answer: 70 % of control

Question: And the T/C (dose: 200.0 mg/kg/injection, schedule: Q04DX004 (sc), vehicle: distilled water + Tween-80)?
Answer: 155 % of control

Question: What about the T/C (dose: 400.0 mg/kg/injection, schedule: Q04DX004 (sc), vehicle: distilled water + Tween-80) of the same molecule?
Answer: 80 % of control

Question: Which T/C (dose: 16.0 mg/kg/injection, schedule: Q04DX004 (sc), vehicle: saline with Tween-80) does the source give for `CCCCC1CCCCCCc2[nH]c(/C=C3\N=C(c4ccc[nH]4)C=C3OC)cc21` (configuration not stated) here?
Answer: 200 % of control

Question: `CS(=O)(=O)OCCCCOS(C)(=O)=O` was tested. Which T/C (dose: 6.25 mg/kg/injection, schedule: Q01DX010 (sc), vehicle: saline with Tween-80) did it give?
Answer: 121 % of control

Question: And the T/C (dose: 25.0 mg/kg/injection, schedule: Q01DX010 (sc), vehicle: saline with Tween-80)?
Answer: 238 % of control

Question: For `CC(=O)N(C)c1ccc(Nc2cc(C)[nH]c3ccc4ncnc4c23)cc1`, which T/C [1] is on record?
Answer: 95 % of control

Question: What about the T/C [2] of the same molecule?
Answer: 68 % of control

Question: What about the T/C [3] of the same molecule?
Answer: 79 % of control

Question: Which results are given for `ClCC[Se](Cl)(Cl)c1ccccc1`?
Answer: T/C (dose: 12.5 mg/kg/injection, schedule: Q04DX004 (sc), vehicle: saline): 154 % of control; T/C (dose: 50.0 mg/kg/injection, schedule: Q04DX004 (sc), vehicle: saline): 100 % of control

Question: With `C=C1N(C)c2ccccc2C1(C)C` as the molecule, how does the T/C [1] read?
Answer: 66 % of control

Question: And the T/C [2]?
Answer: 73 % of control

Question: What about the T/C [3] of the same molecule?
Answer: 94 % of control

Question: Which T/C [4] does the source give for `COc1cc([C@@H]2c3cc4c(c(O)c3C[C@H]3COC(=O)[C@@H]32)OCO4)cc(OC)c1OC` here?
Answer: 46 % of control

Question: And the T/C [5]?
Answer: 58 % of control

Question: What about the T/C (dose: 8.0 mg/kg/injection, schedule: Q01DX010 (sc), vehicle: saline) of the same molecule?
Answer: 25 % of control

Question: Which results are given for `Cc1ccccc1CN1C2=NCCN2C(=O)C2=C1CCN(S(=O)(=O)c1ccc(Cl)c(S(N)(=O)=O)c1)C2`?
Answer: T/C (dose: 150.0 mg/kg/injection, schedule: Q04DX004 (sc), vehicle: saline): 86 % of control; T/C (dose: 300.0 mg/kg/injection, schedule: Q04DX004 (sc), vehicle: saline): 168 % of control; T/C (dose: 600.0 mg/kg/injection, schedule: Q04DX004 (sc), vehicle: saline): 115 % of control; T/C (dose: 1200.0 mg/kg/injection, schedule: Q04DX004 (sc), vehicle: saline): 75 % of control

Question: `CNC(=O)c1cccc2c(Nc3ccc(NS(C)(=O)=O)cc3OC)c3cccc(C)c3nc12` was tested. Which T/C (dose: 50.0 mg/kg/injection, schedule: Q04DX004 (sc), vehicle: other) did it give?
Answer: 72 % of control

Question: And the T/C (dose: 100.0 mg/kg/injection, schedule: Q04DX004 (sc), vehicle: other)?
Answer: 39 % of control

Question: With `CC1=C2CC(C)(C)/C=C\C(=O)/C(C)=C\C3=C[C@H](C)C[C@]3(O2)C1=O` as the molecule, how does the T/C (dose: 50.0 mg/kg/injection, schedule: Q01DX010 (sc), vehicle: Klucel (hydroxypropylcellulose) (HPC)) read?
Answer: 49 % of control

Question: For `O=S(=O)(SC(S(=O)(=O)c1ccccc1)S(=O)(=O)c1ccccc1)c1ccccc1`, which T/C (dose: 100.0 mg/kg/injection, schedule: Q04DX004 (sc), vehicle: Klucel (hydroxypropylcellulose) (HPC)) is on record?
Answer: 246 % of control

Question: And the T/C (dose: 200.0 mg/kg/injection, schedule: Q04DX004 (sc), vehicle: Klucel (hydroxypropylcellulose) (HPC))?
Answer: 203 % of control

Question: What about the T/C (dose: 400.0 mg/kg/injection, schedule: Q04DX004 (sc), vehicle: Klucel (hydroxypropylcellulose) (HPC)) of the same molecule?
Answer: 246 % of control

Question: `CCCCOC(=O)/C=C(\Br)C(=O)OCCCC` was tested. Which T/C (dose: 250.0 mg/kg/injection, schedule: Q04DX004 (sc), vehicle: saline with Tween-80) did it give?
Answer: 69 % of control

Question: What about the T/C (dose: 500.0 mg/kg/injection, schedule: Q04DX004 (sc), vehicle: saline with Tween-80) of the same molecule?
Answer: 43 % of control

Question: How did the T/C (dose: 400.0 mg/kg/injection, schedule: Q01DX010 (sc), vehicle: Klucel (hydroxypropylcellulose) (HPC)) turn out when `CC(=O)O[C@H]1C(=O)[C@@]2(C)[C@H]([C@H](OC(=O)c3ccccc3)[C@]3(O)C[C@H](OC(=O)[C@H](O)[C@@H](NC(=O)c4ccccc4)c4ccccc4)C(C)=C1C3(C)C)[C@]1(OC(C)=O)CO[C@@H]1C[C@@H]2O` was run?
Answer: 3 % of control and 12 % of control and 16 % of control

Question: How did the T/C (dose: 150.0 mg/kg/injection, schedule: Q04DX004 (sc), vehicle: other) turn out when `CCCCCc1cc(O)c2c(c1)OC(C)(C)[C@@H]1CCC(C)=C[C@@H]21` was run?
Answer: 117 % of control

Question: What about the T/C (dose: 300.0 mg/kg/injection, schedule: Q04DX004 (sc), vehicle: other) of the same molecule?
Answer: 76 % of control

Question: And the T/C (dose: 600.0 mg/kg/injection, schedule: Q04DX004 (sc), vehicle: other)?
Answer: 68 % of control

Question: What about the T/C (dose: 1200.0 mg/kg/injection, schedule: Q04DX004 (sc), vehicle: other) of the same molecule?
Answer: 36 % of control

Question: Which results are given for `CC(=O)N(C)O`?
Answer: T/C [6]: 88 % of control; T/C (dose: 300.0 mg/kg/injection, schedule: Q04DX004 (sc), vehicle: saline with Tween-80): 71 % of control; T/C (dose: 600.0 mg/kg/injection, schedule: Q04DX004 (sc), vehicle: saline with Tween-80): 45 % of control

Question: What does the source list for `CCOC(=O)C(CC(C)C)NC(=O)C(Cc1ccc(N(CCCl)CCCl)cc1)NC(C)=O` (configuration not stated)?
Answer: T/C (dose: 12.5 mg/kg/injection, schedule: Q01DX010 (sc), vehicle: saline with Tween-80): 66 % of control and 87 % of control; T/C [7]: 62 % of control; T/C [8]: 32 % of control; T/C (dose: 1200.0 mg/kg/injection, schedule: Q04DX004 (sc), vehicle: saline with Tween-80): 29 % of control

Question: `Nc1ncnc2c(C3OC(CO)C(O)C3O)[nH]nc12` (configuration not stated) was tested. Which T/C (dose: 75.0 mg/kg/injection, schedule: Q04DX004 (sc), vehicle: suspension in saline) did it give?
Answer: 39 % of control

Question: Which T/C (dose: 100.0 mg/kg/injection, schedule: Q01DX010 (sc), vehicle: saline) does the source give for `C1CN2CN3CCN(CN1C3)C2` here?
Answer: 93 % of control

Question: What about the T/C (dose: 200.0 mg/kg/injection, schedule: Q01DX010 (sc), vehicle: saline) of the same molecule?
Answer: 95 % of control

Question: `CN=S(=O)(OCCCCCOS(=O)(=NC)c1ccc(C)cc1)c1ccc(C)cc1` (configuration not stated) was tested. Which T/C [6] did it give?
Answer: 81 % of control

Question: `CCOC(=O)C1=C(C#N)C2(CCC(OCc3ccccc3)CC2)C(=O)O1` (configuration not stated) was tested. Which T/C (dose: 100.0 mg/kg/injection, schedule: Q04DX004 (sc), vehicle: suspension in saline) did it give?
Answer: 91 % of control

Question: What about the T/C (dose: 800.0 mg/kg/injection, schedule: Q04DX004 (sc), vehicle: suspension in saline) of the same molecule?
Answer: 110 % of control

Question: What does the source list for `CCOC(=O)Nc1cc2c(c(N)n1)N=C(c1ccccc1)CN2`?
Answer: T/C (dose: 12.5 mg/kg/injection, schedule: Q04DX004 (sc), vehicle: saline with Tween-80): 90 % of control; T/C (dose: 25.0 mg/kg/injection, schedule: Q04DX004 (sc), vehicle: saline with Tween-80): 104 % of control

Question: What does the source list for `CC[C@H]1CN2CCc3cc(OC)c(OC)cc3[C@@H]2C[C@@H]1C[C@H]1NCCc2cc(OC)c(OC)cc21`?
Answer: T/C (dose: 1.0 mg/kg/injection, schedule: Q01DX010 (sc), vehicle: saline): 92 % of control; T/C [4]: 166 % of control; T/C [5]: 90 % of control

Question: `COC1CC(CC2CCC(C)C(C(C)C(=O)O)O2)OC2(OC(C)(C3CCC(C)(C4OC(C5OC(O)(CO)C(C)CC5C)CC4C)O3)CC2C)C1C` (configuration not stated) was tested. Which T/C (dose: 3.75 mg/kg/injection, schedule: Q04DX004 (sc), vehicle: Klucel (hydroxypropylcellulose) (HPC)) did it give?
Answer: 34 % of control

Question: What about the T/C (dose: 7.5 mg/kg/injection, schedule: Q04DX004 (sc), vehicle: Klucel (hydroxypropylcellulose) (HPC)) of the same molecule?
Answer: 107 % of control

Question: `O=C1C=C(C2OC(CO)C(O)C2O)C(=O)N1` (configuration not stated) was tested. Which T/C (dose: 6.25 mg/kg/injection, schedule: Q01DX010 (sc), vehicle: saline) did it give?
Answer: 78 % of control

Question: What about the T/C (dose: 12.5 mg/kg/injection, schedule: Q01DX010 (sc), vehicle: saline) of the same molecule?
Answer: 78 % of control

Question: With `NC(=S)N/N=C\c1ncccc1OCc1cccc(N)c1` as the molecule, how does the T/C (dose: 225.0 mg/kg/injection, schedule: Q04DX004 (sc), vehicle: saline with Tween-80) read?
Answer: 220 % of control

Question: And the T/C (dose: 450.0 mg/kg/injection, schedule: Q04DX004 (sc), vehicle: saline with Tween-80)?
Answer: 102 % of control

Question: And the T/C (dose: 900.0 mg/kg/injection, schedule: Q04DX004 (sc), vehicle: saline with Tween-80)?
Answer: 121 % of control

Question: And the T/C (dose: 1800.0 mg/kg/injection, schedule: Q04DX004 (sc), vehicle: saline with Tween-80)?
Answer: 99 % of control

Question: With `COc1cc2c(cc1O)N=C[C@@H]1CCC(O)N1C2=O` (mixture of isomers) as the molecule, how does the T/C (dose: 10.0 mg/kg/injection, schedule: Q04DX004 (sc), vehicle: suspension in saline) read?
Answer: 64 % of control

Question: Which T/C (dose: 75.0 mg/kg/injection, schedule: Q04DX004 (sc), vehicle: saline with Tween-80) does the source give for `O=[n+]1c2ccccc2n([O-])c2ccccc21.[Cl][Ni][Cl]` here?
Answer: 92 % of control

Question: And the T/C [6]?
Answer: 89 % of control

Question: `CC(=O)OCC1OC(OC(C)=O)C(NC(=O)N(CCCl)N=O)C(OC(C)=O)C1OC(C)=O` (configuration not stated) was tested. Which T/C (dose: 3.0 mg/kg/injection, schedule: Q04DX004 (sc), vehicle: Klucel (hydroxypropylcellulose) (HPC)) did it give?
Answer: 30 % of control

Question: What about the T/C (dose: 6.0 mg/kg/injection, schedule: Q04DX004 (sc), vehicle: Klucel (hydroxypropylcellulose) (HPC)) of the same molecule?
Answer: 40 % of control

Question: And the T/C (dose: 12.0 mg/kg/injection, schedule: Q04DX004 (sc), vehicle: Klucel (hydroxypropylcellulose) (HPC))?
Answer: 60 % of control

Question: And the T/C (dose: 24.0 mg/kg/injection, schedule: Q04DX004 (sc), vehicle: Klucel (hydroxypropylcellulose) (HPC))?
Answer: 96 % of control

Question: `CC(Cc1ccc(O)cc1)NCC(O)c1ccc(O)c(O)c1` (configuration not stated) was tested. Which T/C [2] did it give?
Answer: 106 % of control

Question: And the T/C [3]?
Answer: 91 % of control

Question: And the T/C [7]?
Answer: 89 % of control

Question: And the T/C [8]?
Answer: 80 % of control
